Test results from patent publication US10091998B2, “Tetrazolinone compound and use thereof” (SUMITOMO CHEMICAL COMPANY, LIMITED, priority 2013, dated 2018).

The compounds below were run on second-instar larvae of diamondback moth (Plutella xylostella) (assay: Test Example 11: diamondback moth mortality on treated cabbage). Conditions: 120 h, 500 ppm spray on cabbage, 20 mL per cup, 5 days at 25° C.
Type: in vivo
Procedure: As a test chemical solution used in the present test example, a water dilution (test chemical solution) was prepared so as to contain a predetermined concentration (500 ppm) of any one compound of the present compounds 1, 15, 17, and 55.
The test chemical solution was sprayed over cabbage in three-leaf stage sowed and grown in a polyethylene at a rate of 20 mL per cup. After drying the chemical solution, the stem and leaf portions were cut and disposed in a 50 mL cup. Five (5) heads of second-instar larvae of diamondback moth (Plutella xylostella) were released and then a lid was put on the cup. After storage at 25° C. for 5 days, the number of the dead insects was counted and mortality was calculated by the following equation. Mortality (%)=(number of dead insects/number of tested insects)×100

| Structure (SMILES) | mortality at 500 ppm |
| --- | --- |
| Cc1cccc(-n2nnn(C)c2=O)c1OCc1ccccc1 [Present Compound 1, 1-(2-phenylmethoxy-3-methylphenyl)-4-methyl-1,4-dihydrotetrazol-5-one] | ≥ 80% |
| Cc1ccc(-c2ccc(COc3c(C)cccc3-n3nnn(C)c3=O)c(C)c2)cc1 [Present Compound 15] | ≥ 80% |
| Cc1cc(-c2ccccc2C)ccc1COc1c(C)cccc1-n1nnn(C)c1=O [Present Compound 17] | ≥ 80% |
| COc1ccccc1-c1csc(COc2c(C)cccc2-n2nnn(C)c2=O)n1 [Present Compound 55, 2-({[1-(4,5-dihydro-4-methyl-5-oxo-1H-tetrazol-1-yl)-3-methylphenyl-2-yl]oxy}methyl)-4-(2-methoxyphenyl)thiazole] | ≥ 80% |
